From patent EP1025114B1, “3'-N-MODIFIED 6-O-SUBSTITUTED ERYTHROMYCIN KETOLIDE DERIVATIVES HAVING ANTIBACTERIAL ACTIVITY” (priority 1997, dated 1999)

Legend:
Assay in all cases: In vitro antibacterial activity, agar dilution MIC
Type in all cases: cell-based
[1] = system: Candida albicans CCH 442; settings: Candida albicans CCH 442 (organism code TT); BHI agar, 35-37 °C, 20 to 24 hours; unit assumed
Method: (§1) Representative compounds of the present invention were assayed in vitro for antibacterial activity as follows: Twelve petri dishes containing successive aqueous dilutions of the test compound mixed with 10 mL of sterilized Brain Heart infusion (BHI) agar (Difco 0418-01-5) were prepared. Each plate was inoculated with 1:100 (or 1:10 for slow-growing strains, such as Micrococcus and Streptococcus) dilutions of up to 32 different microorganisms, using a Steers replicator block. […] In addition, a control plate, using BHI agar containing no test compound, was prepared and incubated at the beginning and end of each test.
(§2) An additional plate containing a compound having known susceptibility patterns for the organisms being tested and belonging to the same antibiotic class as the test compound was also prepared and incubated as a further control, as well as to provide test-to-test comparability.
(§3) After incubation, each plate was visually inspected. The minimum inhibitory concentration (MIC) was defined as the lowest concentration of drug yielding no growth, a slight haze, or sparsely isolated colonies on the inoculum spot as compared to the growth control.

[2] = system: Enterococcus faecium ATCC 8043; settings: Enterococcus faecium ATCC 8043 (organism code II); BHI agar, 35-37 °C, 20 to 24 hours; unit assumed
Method: as §1, §2, §3

[3] = system: Escherichia coli DC-2; settings: Escherichia coli DC-2 (organism code SS); BHI agar, 35-37 °C, 20 to 24 hours; unit assumed
Method: as §1, §2, §3

[4] = system: Escherichia coli JUHL; settings: Escherichia coli JUHL (organism code QQ); BHI agar, 35-37 °C, 20 to 24 hours; unit assumed
Method: as §1, §2, §3

[5] = system: Escherichia coli SS; settings: Escherichia coli SS (organism code RR); BHI agar, 35-37 °C, 20 to 24 hours; unit assumed
Method: as §1, §2, §3

[6] = system: Haemophilis Influenzae DILL AMP R; settings: Haemophilis Influenzae DILL AMP R (organism code WW); BHI agar, 35-37 °C, 20 to 24 hours; unit assumed
Method: as §1, §2, §3

[7] = system: Micrococcus luteus ATCC 4698; settings: Micrococcus luteus ATCC 4698 (organism code PP); BHI agar, 35-37 °C, 20 to 24 hours; unit assumed
Method: as §1, §2, §3

[8] = system: Micrococcus luteus ATCC 9341; settings: Micrococcus luteus ATCC 9341 (organism code OO); BHI agar, 35-37 °C, 20 to 24 hours; unit assumed
Method: as §1, §2, §3

[9] = system: Mycobacterium smegmatis ATCC 114; settings: Mycobacterium smegmatis ATCC 114 (organism code UU); BHI agar, 35-37 °C, 20 to 24 hours; unit assumed
Method: as §1, §2, §3

[10] = system: Nocardia Asteroides ATCC9970; settings: Nocardia Asteroides ATCC9970 (organism code VV); BHI agar, 35-37 °C, 20 to 24 hours; unit assumed
Method: as §1, §2, §3

[11] = system: Staphylococcus aureus 1775; settings: Staphylococcus aureus 1775 (organism code GG); BHI agar, 35-37 °C, 20 to 24 hours; unit assumed
Method: as §1, §2, §3

[12] = system: Staphylococcus aureus A-5278; settings: Staphylococcus aureus A-5278 (organism code CC); BHI agar, 35-37 °C, 20 to 24 hours; unit assumed
Method: as §1, §2, §3

[13] = system: Staphylococcus aureus A5177; settings: Staphylococcus aureus A5177 (organism code BB); BHI agar, 35-37 °C, 20 to 24 hours; unit assumed
Method: as §1, §2, §3

[14] = system: Staphylococcus aureus ATCC 6538P; settings: Staphylococcus aureus ATCC 6538P (organism code AA); BHI agar, 35-37 °C, 20 to 24 hours; unit assumed
Method: as §1, §2, §3

[15] = system: Staphylococcus aureus CMX 553; settings: Staphylococcus aureus CMX 553 (organism code FF); BHI agar, 35-37 °C, 20 to 24 hours; unit assumed
Method: as §1, §2, §3

[16] = system: Staphylococcus aureus CMX 642A; settings: Staphylococcus aureus CMX 642A (organism code DD); BHI agar, 35-37 °C, 20 to 24 hours; unit assumed
Method: as §1, §2, §3

[17] = system: Staphylococcus aureus NCTC10649M; settings: Staphylococcus aureus NCTC10649M (organism code EE); BHI agar, 35-37 °C, 20 to 24 hours; unit assumed
Method: as §1, §2, §3

[18] = system: Staphylococcus epidermidis 3519; settings: Staphylococcus epidermidis 3519 (organism code HH); BHI agar, 35-37 °C, 20 to 24 hours; unit assumed
Method: as §1, §2, §3

[19] = system: Streptococcus Pheumoniae 5649; settings: Streptococcus Pheumoniae 5649 (organism code ZZA); BHI agar, 35-37 °C, 20 to 24 hours; unit assumed
Method: as §1, §2, §3

[20] = system: Streptococcus Pheumoniae 5979; settings: Streptococcus Pheumoniae 5979 (organism code ZZ); BHI agar, 35-37 °C, 20 to 24 hours; unit assumed
Method: as §1, §2, §3

[21] = system: Streptococcus Pheumoniae ATCC6303; settings: Streptococcus Pheumoniae ATCC6303 (organism code XX); BHI agar, 35-37 °C, 20 to 24 hours; unit assumed
Method: as §1, §2, §3

[22] = system: Streptococcus Pheumoniae GYR 1171; settings: Streptococcus Pheumoniae GYR 1171 (organism code YY); BHI agar, 35-37 °C, 20 to 24 hours; unit assumed
Method: as §1, §2, §3

[23] = system: Streptococcus agalactiae CMX 508; settings: Streptococcus agalactiae CMX 508 (organism code KK); BHI agar, 35-37 °C, 20 to 24 hours; unit assumed
Method: as §1, §2, §3

[24] = system: Streptococcus bovis A-5169; settings: Streptococcus bovis A-5169 (organism code JJ); BHI agar, 35-37 °C, 20 to 24 hours; unit assumed
Method: as §1, §2, §3

[25] = system: Streptococcus pyogenes 930; settings: Streptococcus pyogenes 930 (organism code MM); BHI agar, 35-37 °C, 20 to 24 hours; unit assumed
Method: as §1, §2, §3

[26] = system: Streptococcus pyogenes EES61; settings: Streptococcus pyogenes EES61 (organism code LL); BHI agar, 35-37 °C, 20 to 24 hours; unit assumed
Method: as §1, §2, §3

[27] = system: Streptococcus pyogenes PIU 2548; settings: Streptococcus pyogenes PIU 2548 (organism code NN); BHI agar, 35-37 °C, 20 to 24 hours; unit assumed
Method: as §1, §2, §3

Compound | MIC [1] | MIC [2] | MIC [3] | MIC [4] | MIC [5] | MIC [6] | MIC [7] | MIC [8] | MIC [9] | MIC [10] | MIC [11] | MIC [12] | MIC [13] | MIC [14] | MIC [15] | MIC [16] | MIC [17] | MIC [18] | MIC [19] | MIC [20] | further results
CC[C@H]1OC(=O)[C@H](C)C(=O)[C@H](C)[C@@H](O[C@@H]2O[C@H](C)C[C@H](N(C)C3CC3)[C@H]2O)[C@](C)(OCC=Cc2cnc3ccccc3c2)C[C@@H](C)C(=O)[C@H](C)[C@H]2NC(=O)O[C@@]21C [Example 20, Compound of Formula (II); R is -CH2CH=CH-(3-quinolyl), R^p is H, W is absent, R^w is H, R^1 is cyclo-C3H5, R^2 is CH3] | > 100 µg/mL | 0.39 µg/mL | > 100 µg/mL | > 100 µg/mL | 3.1 µg/mL | 64 µg/mL | 0.78 µg/mL | 0.39 µg/mL | 3.1 µg/mL | 3.1 µg/mL | > 100 µg/mL | > 100 µg/mL | 3.1 µg/mL | 1.56 µg/mL | 1.56 µg/mL | 1.56 µg/mL | 3.1 µg/mL | 3.1 µg/mL | 0.25 µg/mL | 16 µg/mL | MIC [21]: 0.03 µg/mL; MIC [22]: 0.03 µg/mL; MIC [23]: 0.2 µg/mL; MIC [24]: 0.2 µg/mL; MIC [25]: > 100 µg/mL; MIC [26]: 0.1 µg/mL; MIC [27]: 0.39 µg/mL
CCOC(=O)CN(C)[C@H]1C[C@@H](C)O[C@@H](O[C@@H]2[C@@H](C)C(=O)[C@@H](C)C(=O)O[C@H](CC)[C@@]3(C)OC(=O)N[C@@H]3[C@@H](C)C(=O)[C@H](C)C[C@@]2(C)OCC=Cc2cnc3ccccc3c2)[C@@H]1O [Example 5, Compound of Formula (II); R is -CH2CH=CH-(3-quinolyl), R^p is H, W is absent, R^w is H, R^1 is CH2C(O)-O-CH2CH3, R^2 is CH3.] | > 100 µg/mL | 6.2 µg/mL | > 100 µg/mL | > 100 µg/mL | 25 µg/mL | 128 µg/mL | 6.2 µg/mL | 0.78 µg/mL | 25 µg/mL | 25 µg/mL | > 100 µg/mL | > 100 µg/mL | 12.5 µg/mL | 6.2 µg/mL | 12.5 µg/mL | 12.5 µg/mL | 12.5 µg/mL | 12.5 µg/mL | 2 µg/mL | > 128 µg/mL | MIC [21]: 0.25 µg/mL; MIC [22]: 0.25 µg/mL; MIC [23]: 1.56 µg/mL; MIC [24]: 1.56 µg/mL; MIC [25]: > 100 µg/mL; MIC [26]: 0.39 µg/mL; MIC [27]: 6.2 µg/mL
CC[C@H]1OC(=O)[C@H](C)C(=O)[C@H](C)[C@@H](O[C@@H]2O[C@H](C)C[C@H](N(C)CCF)[C@H]2O)[C@](C)(OCC=Cc2cnc3ccccc3c2)C[C@@H](C)C(=O)[C@H](C)[C@H]2NC(=O)O[C@@]21C [Example 7, Compound of Formula (II); R is -CH2CH=CH-(3-quinolyl), R^p is H, W is absent, R^w is H, R^1 is CH2CH2F, R^2 is CH3] | > 100 µg/mL | 0.05 µg/mL | > 100 µg/mL | > 100 µg/mL | 0.39 µg/mL | 8 µg/mL | 0.39 µg/mL | 0.05 µg/mL | 1.56 µg/mL | 0.39 µg/mL | > 100 µg/mL | > 100 µg/mL | 0.2 µg/mL | 0.1 µg/mL | 0.05 µg/mL | 0.1 µg/mL | 0.1 µg/mL | 0.2 µg/mL | 0.25 µg/mL | 16 µg/mL | MIC [21]: 0.03 µg/mL; MIC [22]: 0.03 µg/mL; MIC [23]: 0.05 µg/mL; MIC [24]: 0.01 µg/mL; MIC [25]: 12.5 µg/mL; MIC [26]: 0.01 µg/mL; MIC [27]: 0.39 µg/mL
